From US8802715B2, “Crystal forms of saxagliptin and processes for preparing same” (AstraZeneca AB, priority 2007, dated 2014) come the findings set out here.

Each structure is given as a SMILES string.

The nature of series [1]: Weight gain with relative humidity (hygroscopicity). The series is classed as physicochemical.
A short description of series [2]: Solid form stability of crystals stored at ambient conditions. The series is classed as physicochemical. The following applies: product likely form H2-1. The method, then: 100 mg Saxagliptin mono HCl salt form H2-1 (dihydrate) (prepared employing a procedure similar to that described in Example 5) were added to 2 ml of dry ethanol (dried over molecular sieves). The resulting mixture was heated at 45° C. until all form H^2-1 compound was dissolved, at which time heating was discontinued. Crystallization was initiated when the temperature was cooled to 25° C.±2° C. (close to room temperature). Crystals of saxagliptin HCl salt Pattern P-5 were recovered, which crystals were maintained as a slurry in a sealed container at 25° C.±2° C.

For the molecule `N#C[C@@H]1C[C@@H]2C[C@@H]2N1C(=O)[C@@H](N)C12CC3CC(CC(O)(C3)C1)C2.O` [free base monohydrate (form H−1)], the hygroscopicity entry in series [1] (from weight gain in the range 25-75% RH at 25° C.) is listed as “non-hygroscopic”. Also, the weight gain in series [1] (range 25-75% RH at 25° C.) is given as 0.1%.

`Cl.N#C[C@@H]1C[C@@H]2C[C@@H]2N1C(=O)[C@@H](N)C12CC3CC(CC(O)(C3)C1)C2` [saxagliptin HCl salt Pattern P-5]: the “conversion of crystal form on storage” value in series [2] is reported as “underwent significant conversion”.
